Reference: article PMC8058764 (Chemical Research in Toxicology, 2021)

What was measured:
CYP21A2 = conditions: NCI-H295R cells; cited from earlier work
CYP17A1 = conditions: NCI-H295R cells; cited from earlier work
[1] = Lopinavir intrinsic clearance by adult human liver microsomes; assay type: in vitro ADME
neonatal pooled HLMs = test: Inhibition of DHEA-S metabolism; assay type: biochemical, human; conditions: DHEA-S 50 μM, HLMs 0.05 mg/mL, lopinavir 8 μM without or with ritonavir 0.5 μM, 30 min
[2] = Lopinavir intrinsic clearance by neonatal human liver microsomes; assay type: in vitro ADME; conditions: for mean lopinavir percent loss: lopinavir 1 μM, 30 min
[3] = both, human, pooled adult human liver microsomes, pH 7.4
[4] = human, pooled neonatal human liver microsomes, pH 7.4

mean lopinavir percent loss ([1]; adult HLMs 0.02 mg/mL, lopinavir 1 μM, 30 min): about 94% | lopinavir loss in presence of ritonavir ([1]; adult HLMs 0.02 mg/mL, lopinavir 1 μM, ritonavir 62.5 nM): less than 20% | half-life at 1 μM [1, 3]: 7.18 min | microsomal CLint at 1 μM [1, 3]: 4830 µL/min/mg | half-life at 1 μM [2, 4]: 52.1 min | microsomal CLint at 1 μM [2, 4]: 133 µL/min/mg | mean lopinavir percent loss ([2]; neonatal HLMs 0.02 mg/mL): 21% | mean lopinavir percent loss ([2]; neonatal HLMs 0.1 mg/mL): 32%
SMILES: Cc1cccc(C)c1OCC(=O)N[C@@H](Cc1ccccc1)[C@@H](O)C[C@H](Cc1ccccc1)NC(=O)[C@H](C(C)C)N1CCCNC1=O [lopinavir]
inhibition of CYP21A2 (CYP21A2): moderate inhibition | inhibition of CYP17A1 (CYP17A1): moderate inhibition | formation rate of 16α-hydroxy DHEA-S in neonatal HLMs (neonatal pooled HLMs): 1.19 nmol/min/mg protein
